For one assay, the target named is CDK-2/cyclin A (Homo sapiens, UniProt P24941). The assay can be described thus: CDK inhibition assay, CDK-2/cyclin A against Histone HI, 33P-ATP. It is filed as biochemical. As to conditions: at 500 nM. In short, it runs like this:
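CDK-2/cyclin A (5-20 mU) phosphorylating Histone HI (1 mg/ml) in 50 mM Hepes pH 7.5, 100 mM NaCl, 10 mM Mg acetate, 0.02 mM [33P-γ-ATP], 30 min at room temperature. Stopped with orthophosphoric acid, captured on P81 filters for radiometric readout.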

A further assay concerns HCT-116. The assay can be described thus: MTT assay on cancer cell line HCT-116. It is filed as cell-based, human. To be noted: Homo sapiens. As to the method: (§1) Cell culture, growth conditions and treatments. […] Different molecules were dissolved in DMSO and were delivered to cell cultures in complete medium.
In general terms: Tetrazolium assays rely on reduction of a dye to a coloured formazan, in cell work by metabolically active cells.

The subject of the next assay is PC-3. The assay can be described thus: MTT assay on cancer cell line PC-3. It is filed as cell-based, human. As to conditions: Homo sapiens. As to the method: as §1
The test system of another assay is MCF-7. The experiment in a line: MTT assay on cancer cell line MCF-7. It is filed as cell-based, Human. As to conditions: Homo sapiens. On the procedure: as §1
The target of another assay is CDK-9/Cyclin T1 (Homo sapiens, UniProt P50750). The experiment in a line: CDK inhibition assay, CDK-9/Cyclin T1 against substrate peptide, 33P-ATP. It is filed as biochemical. As to conditions: at 500 nM. On the procedure: (50-1000 cpm/pmole) and incubated for 30 min at room temperature. Assays were stopped by addition of 5 µl of 0.5 M (3%) orthophosphoric acid and then harvested onto P81 Unifilter plates with a wash buffer of 50 mM orthophosphoric acid.
Sequence of CDK-9/Cyclin T1 (P50750 whole entry): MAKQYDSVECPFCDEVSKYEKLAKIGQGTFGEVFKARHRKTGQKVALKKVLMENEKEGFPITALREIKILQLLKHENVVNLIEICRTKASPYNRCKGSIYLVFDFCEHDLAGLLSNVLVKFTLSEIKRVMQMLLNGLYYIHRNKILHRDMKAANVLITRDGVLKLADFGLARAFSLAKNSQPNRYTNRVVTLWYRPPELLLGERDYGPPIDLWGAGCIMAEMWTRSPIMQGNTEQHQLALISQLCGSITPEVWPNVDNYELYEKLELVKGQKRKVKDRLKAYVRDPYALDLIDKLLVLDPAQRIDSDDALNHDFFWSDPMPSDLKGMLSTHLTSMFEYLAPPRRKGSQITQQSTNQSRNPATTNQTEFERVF
Sequence of CDK-9/Cyclin T1 (O60563 whole entry partner): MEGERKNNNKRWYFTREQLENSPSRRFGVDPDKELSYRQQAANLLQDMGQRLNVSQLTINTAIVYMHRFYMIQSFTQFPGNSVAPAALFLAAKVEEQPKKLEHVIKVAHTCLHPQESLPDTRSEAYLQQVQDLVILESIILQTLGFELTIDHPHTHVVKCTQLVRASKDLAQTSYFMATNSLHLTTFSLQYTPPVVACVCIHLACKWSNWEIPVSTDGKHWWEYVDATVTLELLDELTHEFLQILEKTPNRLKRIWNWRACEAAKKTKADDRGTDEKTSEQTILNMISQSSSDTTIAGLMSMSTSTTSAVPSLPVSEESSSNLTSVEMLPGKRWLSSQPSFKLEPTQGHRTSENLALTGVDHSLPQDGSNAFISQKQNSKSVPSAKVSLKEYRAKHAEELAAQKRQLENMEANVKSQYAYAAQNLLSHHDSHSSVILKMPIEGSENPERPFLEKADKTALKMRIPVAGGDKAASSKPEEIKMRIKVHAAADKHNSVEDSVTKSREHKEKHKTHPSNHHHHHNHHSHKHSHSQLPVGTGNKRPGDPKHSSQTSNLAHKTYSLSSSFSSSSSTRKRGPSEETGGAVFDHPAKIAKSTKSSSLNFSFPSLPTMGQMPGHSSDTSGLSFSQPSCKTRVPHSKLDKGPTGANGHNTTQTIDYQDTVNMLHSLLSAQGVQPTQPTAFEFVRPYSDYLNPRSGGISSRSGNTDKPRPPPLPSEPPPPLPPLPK

For the next assay, the system named is SHSY-5Y. The assay can be described thus: MTT assay on cancer cell line SHSY-5Y. It is filed as cell-based, human. To be noted: Homo sapiens, SH-SY5Y. As to the method:
as §1

The test system of a further assay is MDA-MB435. The experiment in a line: MTT assay on cancer cell line MDA-MB435. It is filed as cell-based, Human. As to conditions: Homo sapiens, MDA-MB-435. As to the method:
as §1

Where [1] appears, read: Table-7, read-out: In vitro CDK2 % of inhibition.
Setting [2] is: at 10µM, Table 8, read-out: In vitro cell inhibition, % of inhibition, HCT-116.
[3] abbreviates: Table 8, read-out: In vitro cell inhibition, % of inhibition, PC-3.
[4] abbreviates: MCF7, MCF-7, Table 8, read-out: In vitro cell inhibition, % of inhibition, MCF-7.
Where [5] appears, read: MCF7, read-out: inhibition against MCF-7 cell lines.
The mark [6] stands for this setting: Table-7, read-out: In vitro CDK9 % of inhibition.
Where [7] appears, read: SHSY-5Y, Table 8, read-out: In vitro cell inhibition, % of inhibition, SHSY-5Y.
Where [8] appears, read: read-out: inhibition against SHSY-5Y cell lines.
The mark [9] stands for this setting: MDA-MB435, at 10µM, Table 8, read-out: In vitro cell inhibition, % of inhibition, MDA-MB435.
Where [10] appears, read: read-out: inhibition against CDK2.
[11] abbreviates: at 10µM, Table 9 (for reference), read-out: In vitro cell inhibition, % of inhibition, HCT-116.
Where [12] appears, read: Table 9 (for reference), read-out: In vitro cell inhibition, % of inhibition, PC-3.
Where [13] appears, read: MCF7, MCF-7, Table 9 (for reference), read-out: In vitro cell inhibition, % of inhibition, MCF-7.
Setting [14] is: read-out: inhibition against CDK9.
[15] abbreviates: SHSY-5Y, Table 9 (for reference), read-out: In vitro cell inhibition, % of inhibition, SHSY-5Y.
Where [16] appears, read: MDA-MB435, at 10µM, Table 9 (for reference), read-out: In vitro cell inhibition, % of inhibition, MDA-MB435.
Where [17] appears, read: Table-6, read-out: In vitro CDK2 % of inhibition.
The mark [18] stands for this setting: at 10 µM, read-out: inhibition against HCT-116 cell lines.
Setting [19] is: read-out: inhibition against PC-3 cell lines.
Where [20] appears, read: Table-6, read-out: In vitro CDK9 % of inhibition.
[21] abbreviates: at 10 µM, read-out: inhibition against MDAMB-435 cell lines.

The structures appear in SMILES notation. Where two headings read alike, the source gives them in different places.

Regarding `FC(F)(F)c1ccc(-c2cnc3[nH]cc(-c4ccnc(NCCc5ccccc5)n4)c3c2)cc1` [1B1, N-phenethyl-4-(5-(4-(trifluoromethyl)phenyl)-1H-pyrrolo[2,3-b]pyridin-3-yl)pyrimidin-2-amine], the inhibition at 0.5 µM at CDK-2/cyclin A (setting [1]) and at CDK-9/Cyclin T1 (setting [6]) was below 50% throughout. The inhibition at 10 µM was above 50% in the assay on HCT-116 (setting [2]); above 70% in the assay on PC-3 (setting [3]); above 50% in the assay with MCF-7 (setting [4]); above 50% in the assay on MCF-7 (setting [5]); above 70% in the assay on SHSY-5Y (setting [7]); above 70% in the assay on SHSY-5Y (setting [8]). Also, the inhibition at 10 µM with MDA-MB435 (setting [9]) is below 50%.
Turning to `CCc1ccccc1-c1cnc2[nH]cc(-c3ccnc(N)n3)c2c1` [1C10, 4-(5-(2-ethylphenyl)-1H-pyrrolo[2,3-b]pyridin-3-yl)pyrimidin-2-amine], the inhibition at 0.5 µM at CDK-2/cyclin A (setting [1]), on CDK-2/cyclin A (setting [10]), on CDK-9/Cyclin T1 (setting [6]) and at CDK-9/Cyclin T1 (setting [14]) was above 70% in each case. In addition, the inhibition at 10 µM in the assay on HCT-116 (setting [11]), with PC-3 (setting [12]), in the assay with MCF-7 (setting [13]), in the assay with MCF-7 (setting [5]), with SHSY-5Y (setting [15]) and in the assay with SHSY-5Y (setting [8]) was above 70% each time. In addition, the inhibition at 10 µM with MDA-MB435 (setting [16]) is above 70%.
For `COc1ccc(-c2cnc3[nH]cc(-c4ccnc(NCCc5ccccc5)n4)c3c2)cc1` [1B11, 4-(5-(4-methoxyphenyl)-1H-pyrrolo[2,3-b]pyridin-3-yl)-N-phenethylpyrimidin-2-amine], the inhibition at 0.5 µM on CDK-2/cyclin A (setting [1]), at CDK-2/cyclin A (setting [10]), on CDK-9/Cyclin T1 (setting [6]) and on CDK-9/Cyclin T1 (setting [14]) was above 50% throughout. The inhibition at 10 µM in the assay with HCT-116 (setting [2]) was above 50%; in the assay on PC-3 (setting [3]) it was below 50%; with MCF-7 (setting [4]), above 50%; in the assay with MCF-7 (setting [5]) it was above 50%; in the assay on SHSY-5Y (setting [7]) it was above 50%; in the assay with MDA-MB435 (setting [9]) it was above 50%.
As for `Clc1ccc(-c2cnc3[nH]cc(-c4ccnc(NC5CC5)n4)c3c2)cc1` [1A12, 4-(5-(4-chlorophenyl)-1H-pyrrolo[2,3-b]pyridin-3-yl)-N-cyclopropylpyrimidin-2-amine], the inhibition at 0.5 µM on CDK-2/cyclin A (setting [17]), on CDK-2/cyclin A (setting [10]), at CDK-9/Cyclin T1 (setting [20]) and on CDK-9/Cyclin T1 (setting [14]) was above 70% throughout. The inhibition at 10 µM in the assay on HCT-116 (setting [2]) is above 70%; in the assay with HCT-116 (setting [18]), above 70%; in the assay on PC-3 (setting [3]), above 50%; in the assay on PC-3 (setting [19]) it was above 50%; in the assay with MCF-7 (setting [4]) it was above 70%; in the assay on MCF-7 (setting [5]), above 70%. Also, the inhibition at 10 µM in the assay on SHSY-5Y (setting [7]), in the assay on SHSY-5Y (setting [8]), in the assay on MDA-MB435 (setting [9]) and in the assay with MDA-MB435 (setting [21]) was above 70% throughout.
Regarding `COc1ccc(-c2cnc3[nH]cc(-c4ccnc(NC5CCCCCC5)n4)c3c2)cc1` [1A51, N-cycloheptyl-4-(5-(4-methoxyphenyl)-1H-pyrrolo[2,3-b]pyridin-3-yl)pyrimidin-2-amine], the inhibition at 0.5 µM on CDK-2/cyclin A (setting [1]), at CDK-2/cyclin A (setting [10]), on CDK-9/Cyclin T1 (setting [6]) and on CDK-9/Cyclin T1 (setting [14]) was above 70% throughout. Besides, the inhibition at 10 µM in the assay on HCT-116 (setting [2]) is above 50%; in the assay on PC-3 (setting [3]), below 50%; in the assay with MCF-7 (setting [4]) it was above 70%; in the assay on MCF-7 (setting [5]) it was above 70%; in the assay with SHSY-5Y (setting [7]), above 50%; in the assay on MDA-MB435 (setting [9]), below 50%.
As for `Fc1cccc(-c2cnc3[nH]cc(-c4ccnc(NCCc5ccccc5)n4)c3c2)c1` [1B5, 4-(5-(3-fluorophenyl)-1H-pyrrolo[2,3-b]pyridin-3-yl)-N-phenethylpyrimidin-2-amine], the inhibition at 0.5 µM on CDK-2/cyclin A (setting [1]) and at CDK-9/Cyclin T1 (setting [6]) was above 50% in each case. The inhibition at 10 µM is above 50% in the assay with HCT-116 (setting [2]); above 50% with PC-3 (setting [3]); above 50% in the assay with PC-3 (setting [19]); above 50% in the assay on MCF-7 (setting [4]); above 50% with MCF-7 (setting [5]); above 70% in the assay on SHSY-5Y (setting [7]). Also, the inhibition at 10 µM with SHSY-5Y (setting [8]) was above 70%; with MDA-MB435 (setting [9]) it was above 50%.
Regarding `Fc1ccc(-c2cnc3[nH]cc(-c4ccnc(NC5CCCCCC5)n4)c3c2)cc1` [1A42, N-cycloheptyl-4-(5-(4-fluorophenyl)-1H-pyrrolo[2,3-b]pyridin-3-yl)pyrimidin-2-amine], the inhibition at 0.5 µM at CDK-2/cyclin A (setting [17]), at CDK-2/cyclin A (setting [10]), on CDK-9/Cyclin T1 (setting [20]) and at CDK-9/Cyclin T1 (setting [14]) was above 50% throughout. Moreover, the inhibition at 10 µM was above 50% with HCT-116 (setting [2]); above 50% in the assay on PC-3 (setting [3]); above 50% in the assay with PC-3 (setting [19]); below 50% in the assay on MCF-7 (setting [4]); below 50% with MCF-7 (setting [5]); above 70% in the assay on SHSY-5Y (setting [7]). The inhibition at 10 µM with SHSY-5Y (setting [8]) and in the assay with MDA-MB435 (setting [9]) was above 70% each time.
Consider `Fc1ccc(-c2cnc3[nH]cc(-c4ccnc(NC5CC5)n4)c3c2)cc1` [1A2, N-cyclopropyl-4-(5-(4-fluorophenyl)-1H-pyrrolo[2,3-b]pyridin-3-yl)pyrimidin-2-amine], for which the inhibition at 0.5 µM on CDK-2/cyclin A (setting [17]), at CDK-2/cyclin A (setting [10]), at CDK-9/Cyclin T1 (setting [20]) and on CDK-9/Cyclin T1 (setting [14]) was above 70% each time. Also, the inhibition at 10 µM in the assay on HCT-116 (setting [2]) is above 70%; with HCT-116 (setting [18]) it was above 70%; with PC-3 (setting [3]), above 50%; with PC-3 (setting [19]) it was above 50%; with MCF-7 (setting [4]) it was above 70%; in the assay with MCF-7 (setting [5]) it was above 70%. The inhibition at 10 µM in the assay on SHSY-5Y (setting [7]), in the assay with SHSY-5Y (setting [8]), with MDA-MB435 (setting [9]) and with MDA-MB435 (setting [21]) was above 70% throughout.
For `CSc1ccccc1-c1cnc2[nH]cc(-c3ccnc(N)n3)c2c1` [1C9, 4-(5-(2-(methylthio)phenyl)-1H-pyrrolo[2,3-b]pyridin-3-yl)pyrimidin-2-amine], the inhibition at 0.5 µM at CDK-2/cyclin A (setting [1]), at CDK-2/cyclin A (setting [10]), on CDK-9/Cyclin T1 (setting [6]) and on CDK-9/Cyclin T1 (setting [14]) was above 70% throughout. Also, the inhibition at 10 µM in the assay with HCT-116 (setting [11]) was above 50%; in the assay with PC-3 (setting [12]) it was above 70%; in the assay on MCF-7 (setting [13]), above 70%; in the assay on MCF-7 (setting [5]), above 70%; with SHSY-5Y (setting [15]) it was above 70%; in the assay on SHSY-5Y (setting [8]), above 70%. Besides, in the assay on MDA-MB435 (setting [16]), the inhibition at 10 µM is above 70%.
`Fc1ccc(-c2cnc3[nH]cc(-c4ccnc(NCCc5ccccc5)n4)c3c2)cc1` [1B2, 4-(5-(4-fluorophenyl)-1H-pyrrolo[2,3-b]pyridin-3-yl)-N-phenethylpyrimidin-2-amine]: the inhibition at 0.5 µM on CDK-2/cyclin A (setting [1]), at CDK-2/cyclin A (setting [10]), at CDK-9/Cyclin T1 (setting [6]) and at CDK-9/Cyclin T1 (setting [14]) was above 50% each time. The inhibition at 10 µM in the assay on HCT-116 (setting [2]) was above 50%; in the assay with PC-3 (setting [3]), below 50%; in the assay on MCF-7 (setting [4]), above 50%; with SHSY-5Y (setting [7]), above 70%; in the assay with SHSY-5Y (setting [8]) it was above 70%; with MDA-MB435 (setting [9]), above 50%.

Usually inhibition stands for how much of the control response was suppressed.

These data come from patent EP3383875B1, “3-PYRIMIDINYL PYRROLO [2,3-B] PYRIDINE AS ANTICANCER AGENTS AND THE PROCESS FOR THE PREPARATION THEREOF” (Council Of Scientific & Industrial Research, priority 2015, dated 2017).
